Reference: EPA's ToxValDB 9.5 (doi:10.2903/j.efsa.2011.2159)
Converted amounts (≈) assume the structure as drawn.

Legend:
Anas platyrhynchos = settings: mortality
Aphidius rhopalosiphi = settings: not reported; mortality
Apis mellifera = settings: acute; duration: 48 hours; oral; unspecified; mortality
Bibionidae = settings: chronic/long-term; duration: 28 days
Canidae = settings: chronic; duration: 1 years; oral; Dog Other; clinical signs
Colinus virginianus = settings: mortality; for LD50: acute, oral
Daphnia magna = settings: chronic/long-term; duration: 21 days; reproduction
Mus musculus = settings: acute; oral; mortality

`Cc1c(COC(=O)[C@@H]2[C@H](/C=C(\Cl)C(F)(F)F)C2(C)C)cccc1-c1ccccc1` [Bifenthrin] was tested, and the LD50 (Anas platyrhynchos; acute, oral, unspecified) was greater than 2150 mg/kg, the NOEC (Anas platyrhynchos; reproductive) was 75 mg/kg and the NOEC (Anas platyrhynchos; short-term, oral, feed) was 312 mg/kg. The LEL (Aphidius rhopalosiphi) was 60 g/ha, the LD50 (Apis mellifera) was 0.1 µg/piece and the NOEC (Bibionidae) was 0.00032 mg/L. It also gave an NOAEL (Canidae) of 1.5 mg/kg-day, an LD50 (Colinus virginianus; diet) of 569 mg/kg-day and an LD50 (Colinus virginianus) of 1800 mg/kg. For the same compound, the NOEC (Colinus virginianus; reproduction developmental) was 75 mg/kg-day, the NOEC (Daphnia magna) was 9.5e-07 mg/L and the LD50 (Mus musculus) was 42.5 mg/kg. It also gave an LC50 (Oncorhynchus mykiss; acute, duration: 96 hours, mortality) of 0.1 ng/mL (≈ 0.236 nM), an NOEC (Oncorhynchus mykiss; chronic/long-term, duration: 30 days, other) of 1.2e-05 mg/L and an NOAEL (Rattus norvegicus; developmental, development) greater than 2 mg/kg-day. It also gave an NOAEL (Rattus norvegicus; reproduction developmental, reproduction) of 3 mg/kg-day, an NOAEL (Rattus norvegicus; subchronic, duration: 90 days, oral, neurology) of 2.9 mg/kg-day and an LC50 (Tagia sp.; acute, duration: 14 days, mortality) greater than 16 mg/kg. The NOEC (Tagia sp.; chronic/long-term, duration: 56 days, reproduction) was 2.16 mg/kg.
